Data reported in patent publication US6350764B2, “Heteroaryl aminoguanidines and alkoxyguanidines and their use as protease inhibitors” (3-Dimensional Pharmaceuticals, Inc., priority 1997, dated 2002).
pKi: −log10 of the molar value. Counter-ions that a name gives are not always drawn.

Tests used:
Type in all cases: biochemical
[1] = molecular target: T1, bovine trypsin (Bos taurus, UniProt P00760); test: In vitro inhibition of purified enzymes: trypsin, hydrolysis of N-benzoyl-Phe-Val-Arg-p-nitroanilide
T1 construct: Purified bovine trypsin was diluted into assay buffer; purchased Sigma T8642
T1 sequence (P00760 24-246): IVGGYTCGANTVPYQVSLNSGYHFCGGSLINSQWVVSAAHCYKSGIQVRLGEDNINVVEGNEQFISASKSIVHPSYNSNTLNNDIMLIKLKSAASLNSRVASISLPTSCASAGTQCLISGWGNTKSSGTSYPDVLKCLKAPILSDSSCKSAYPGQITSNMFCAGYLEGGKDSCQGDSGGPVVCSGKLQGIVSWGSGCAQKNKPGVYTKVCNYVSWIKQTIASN
Description: (§1) Reagents: All buffer salts were obtained from Sigma Chemical Company (St. Louis, Mo.), and were of the highest purity available. The enzyme substrates, N-benzoyl-Phe-Val-Arg-p-nitroaniide (Sigma B7632) N-benzoyl-Ile-Glu-Gly-Arg-p-nitroanilide hydrochloride (Sigma B2291), N-p-Tosyl-Gly-Pro-Lys-p-nitroanilide (Sigma T6140), N-succinyl-Ala-Ala-Pro-Phe-p-nitroanilide (Sigma S7388) and N-CBZ-Val-Gly-Arg-p-nitroanilide (Sigma C7271) were obtained from Sigma. N-succinyl-Ala-Ala-Pro-Arg-p-nitroanilide (BACHEM L-1720) and N-succinyl-Ala-Ala-Pro-Val-p-nitroanilide (BACHEM L-1770) were obtained from BACHEM (King of Prussia, Pa.).
(§2) Human α-thrombin, human factor Xa and human plasmin were obtained from Enzyme Research Laboratories (South Bend, Id.). Bovine α-chymotrypsin (Sigma C4129), bovine trypsin (Sigma T8642) and human kidney cell urokinase (Sigma U5004) were obtained from Sigma. Human leukocyte elastase was obtained from Elastin Products (Pacific, Mo.).
(§3) Ki Determinations: All assays are based on the ability of the test compound to inhibit the enzyme catalyzed hydrolysis of a peptide p-nitroanilide substrate. In atypical Ki determination, substrate is prepared in DMSO, and diluted into an assay buffer consisting of 50 mM HEPES, 200 mM NaCl, pH 7.5. The final concentrations for each of the substrates is listed below. In general, substrate concentrations are lower than the experimentally determined value for Km. Test compounds are prepared as a 1.0 mg/ml solution in DMSO. Dilutions are prepared in DMSO yielding 8 final concentrations encompassing a 200 fold concentration range. Enzyme solutions are prepared at the concentrations listed below in assay buffer.
(§4) In a typical Ki determination, into each well of a 96 well plate is pipetted 280 mL of substrate solution, 10 mL of test compound solution, and the plate allowed to thermally equilibrate at 37° C. in a Molecular Devices plate reader for>15 minutes. Reactions were initiated by the addition of a […] aliquot of enzyme and the absorbance increase at 405 nm is recorded for 15 minutes. Data corresponding to less than 10% of the total substrate hydrolysis were used in the calculations. The ratio of the velocity (rate of change in absorbance as a function of time) for a sample containing no test compound is divided by the velocity of a sample containing test compound, and is plotted as a function of test compound concentration. The data are fit to a linear regression, and the value of the slope of the line calculated. The inverse of the slope is the experimentally determined Ki value.
Trypsin: Trypsin activity was assessed as the ability to hydrolyze N-benzoyl-Phe-Val-Arg-p-nitroanilide. […] Final DMSO concentration was 4.3%. Purified bovine trypsin was diluted into assay buffer to a concentration of 120 nM. Final reagent concentrations were: [Trypsin]=4 nM, [N-benzoyl-Phe-Val-Arg-p-nitroanilide]=13 mM.

[2] = molecular target: T2, human factor Xa (Homo sapiens, UniProt P00742); test: In vitro inhibition of purified enzymes: Factor X [FXa], hydrolysis of N-benzoyl-Ile-Glu-Gly-Arg-p-nitroanilide
T2 construct: purchased Enzyme Research Laboratories (South Bend)
T2 sequence (P00742 235-488 limits assumed): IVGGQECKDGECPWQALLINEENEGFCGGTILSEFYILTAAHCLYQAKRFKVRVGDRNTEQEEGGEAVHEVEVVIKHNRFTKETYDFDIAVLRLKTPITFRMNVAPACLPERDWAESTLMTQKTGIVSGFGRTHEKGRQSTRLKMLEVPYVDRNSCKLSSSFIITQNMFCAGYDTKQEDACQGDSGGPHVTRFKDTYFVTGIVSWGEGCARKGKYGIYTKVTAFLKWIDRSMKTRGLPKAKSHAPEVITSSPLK
T2 sequence (P00742 41-179 partner limits assumed): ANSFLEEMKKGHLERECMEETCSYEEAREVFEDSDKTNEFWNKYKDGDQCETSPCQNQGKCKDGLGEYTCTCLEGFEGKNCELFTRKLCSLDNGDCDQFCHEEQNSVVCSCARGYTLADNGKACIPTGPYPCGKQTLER
Description: as §1, §2, §3, §4
Factor X [FXa]: FXa activity was assessed as the ability to hydrolyze the substrate N-benzoyl-Ile-Glu-Gly-Arg-p-nitroanilide hydrochloride. […] Final DMSO concentration was 4.3%. Purified activated human Factor X was diluted into assay buffer to a concentration of 300 nM. Final reagent concentrations were: [FXa]=10 nM, [N-benzoyl-Ile-Glu-Gly-Arg-p-nitroanilide hydrochloride]=51 mM.

[3] = molecular target: T3, human leukocyte elastase (Homo sapiens, UniProt P08246); test: In vitro inhibition of purified enzymes: elastase, hydrolysis of N-succinyl-Ala-Ala-Pro-Val-p-nitroanilide
T3 construct: purchased Elastin Products (Pacific, Mo.)
T3 sequence (P08246 30-247 limits assumed): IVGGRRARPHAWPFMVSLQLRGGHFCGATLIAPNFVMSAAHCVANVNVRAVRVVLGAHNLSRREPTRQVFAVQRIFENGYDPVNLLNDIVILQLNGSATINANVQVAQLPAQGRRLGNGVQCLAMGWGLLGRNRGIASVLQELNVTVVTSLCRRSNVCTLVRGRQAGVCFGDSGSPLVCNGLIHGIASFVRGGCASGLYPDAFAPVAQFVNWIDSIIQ
Description: as §1, §2, §3, §4
Elastase: Elastase activity was assessed as the ability to hydrolyze N-succinyl-Ala-Ala-Pro-Val-p-nitroanilide. Substrate solutions were prepared at a concentration of 19 mM (19 mM<<Km=89 mM) in assay buffer. Final DMSO concentration was 4.3%. Purified human leukocyte elastase was diluted into assay buffer to a concentration of 750 nM. Final reagent concentrations were: [Elastase]=25 nM, [N-succinyl-Ala-Ala-Pro-Val-p-nitroanilide]=19 mM.

[4] = molecular target: T4, bovine α-chymotrypsin (Bos taurus, UniProt P00766); test: In vitro inhibition of purified enzymes: chymotrypsin, hydrolysis of N-succinyl-Ala-Ala-Pro-Phe-p-nitroanilide
T4 construct: Bovine α-chymotrypsin (Sigma C4129); purchased Sigma C4129
Description: as §1, §2, §3, §4
Chymotrypsin: Chymotrypsin activity was assessed as the ability to hydrolyze N-succinyl-Ala-Ala-Pro-Phe-p-nitroanilide. […] Final DMSO concentration was 4.3%. Purified bovine chymotrypsin was diluted into assay buffer to a concentration of 81 nM. Final reagent concentrations were: [Chymotrypsin]=2.7 nM, [N-succinyl-Ala-Ala-Pro-Phe-p-nitroanilide]=14 mM.

[5] = molecular target: T5, human plasmin (Homo sapiens, UniProt P00747); test: In vitro inhibition of purified enzymes: plasmin, hydrolysis of N-p-Tosyl-Gly-Pro-Lys-p-nitroanilide
T5 construct: Purified human plasmin was diluted into assay buffer; purchased Enzyme Research Laboratories (South Bend)
T5 sequence (P00747 581-810 limits assumed): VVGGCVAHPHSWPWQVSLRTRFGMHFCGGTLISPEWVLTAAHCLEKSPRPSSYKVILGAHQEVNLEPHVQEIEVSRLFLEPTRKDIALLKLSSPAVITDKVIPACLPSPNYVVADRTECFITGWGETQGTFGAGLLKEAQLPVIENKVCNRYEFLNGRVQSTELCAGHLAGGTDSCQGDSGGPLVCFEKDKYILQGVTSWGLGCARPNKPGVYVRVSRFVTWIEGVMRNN
T5 sequence (P00747 97-580 partner limits assumed): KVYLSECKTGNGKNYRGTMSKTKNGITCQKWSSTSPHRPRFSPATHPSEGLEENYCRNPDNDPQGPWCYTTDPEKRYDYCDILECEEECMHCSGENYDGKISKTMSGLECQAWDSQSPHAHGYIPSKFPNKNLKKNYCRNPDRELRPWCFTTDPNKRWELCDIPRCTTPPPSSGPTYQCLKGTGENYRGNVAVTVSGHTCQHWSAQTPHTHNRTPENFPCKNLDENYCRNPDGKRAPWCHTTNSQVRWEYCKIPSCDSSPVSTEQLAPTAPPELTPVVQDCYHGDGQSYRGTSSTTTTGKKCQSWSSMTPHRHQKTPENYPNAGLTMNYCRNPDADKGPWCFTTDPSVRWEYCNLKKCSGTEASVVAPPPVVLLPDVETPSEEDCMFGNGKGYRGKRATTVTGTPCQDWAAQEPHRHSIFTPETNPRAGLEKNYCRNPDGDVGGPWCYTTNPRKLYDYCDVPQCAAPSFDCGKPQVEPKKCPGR
Description: as §1, §2, §3, §4
Plasmin: Plasmin activity was assessed as the ability to hydrolyze the N-p-Tosyl-Gly-Pro-Lys-p-nitroanilide. Substrate solutions were prepared at a concentration of 37 mM (37 mM<<Km=243 mM) in assay buffer. Final DMSO concentration was 4.3%. Purified human plasmin was diluted into assay buffer to a concentration of 240 nM. Final reagent concentrations were: [Plasmin]=8 nM, [N-p-Tosyl-Gly-Pro-Lys-p-nitroanilide]=37 mM.

[6] = molecular target: T6, human α-thrombin (Homo sapiens, UniProt P00734); test: In vitro inhibition of purified enzymes: thrombin, hydrolysis of N-succinyl-Ala-Ala-Pro-Arg-p-nitroanilide; settings: 37° C., pH 7.5
T6 construct: Purified human a-thrombin was diluted into assay buffer; purchased Enzyme Research Laboratories (South Bend)
Description: as §1, with “Sigma.” for “Sigma. N-succinyl-Ala-Ala-Pro-Arg-p-nitroanilide (BACHEM L-1720) and N-succinyl-Ala-Ala-Pro-Val-p-nitroanilide (BACHEM L-1770) were obtained from BACHEM (King of Prussia, Pa.).”
as §2
as §3, with “In atypical Ki determination, substrate is prepared in DMSO, and diluted into an assay buffer consisting of 50 mM HEPES, 200 mM NaCl, pH 7.5.” left out
as §4, with “Reactions” for “In a typical Ki determination, into each well of a 96 well plate is pipetted 280 mL of substrate solution, 10 mL of test compound solution, and the plate allowed to thermally equilibrate at 37° C. in a Molecular Devices plate reader for>15 minutes. Reactions”
Thrombin: Thrombin activity was assessed as the ability to hydrolyze the substrate N-succinyl-Ala-Ala-Pro-Arg-p-nitroanilide. […] Final reagent concentrations were: [thrombin]=0.5 nM, [substrate N-succinyl-Ala-Ala-Pro-Arg-p-nitroanilide]=32 mM.

Q: Which “% Inhibition Trypsin” value ([1]; at 24,000 nM) does the source give for `Cc1ccc(NS(=O)(=O)Cc2ccccc2)c(=O)n1CC(=O)NCCCONC(=N)N.O=C(O)C(F)(F)F` [Example 1, 3-Benzylsulfonylamino-6-methyl-1-[(3-guanidinooxypropyl)aminocarbonylmethyl]-2-pyridinone trifluorocaetate] here?
A: The value was 0 @ %.

Q: And the “% Inhibition FXa” value ([2]; at 24,000 nM)?
A: The value was 0 @ %.

Q: And the “% Inhibition Elastase” value ([3]; at 24,000 nM)?
A: Its value is 0 @ %.

Q: What about the “% Inhibition Chymo.” value ([4]; at 24,000 nM) of the same compound?
A: Its value is 0 @ %.

Q: What about the “% Inhibition Plasmin” value ([5]; at 24,000 nM) of the same compound?
A: The value was 0 @ %.

Q: What about the pKi [6] of the same compound?
A: Its pKi is 7.28.

Q: `Cc1ccc(NS(=O)(=O)c2ccc(I)cc2)c(=O)n1CC(=O)NCCONC(=N)N` [Example 38, 3-(4-Iodophenylsulfonyl)amino-6-methyl-1-[(2-guanidinooxyethyl)aminocarbonylmethyl]-2-pyridinone trifluoroacetate] was tested. Which inhibition at 20 µM ([1]; at 20,000 nM) did it give?
A: The inhibition at 20 µM was 0%.

Q: What about the pKi ([2]; 37° C., pH 7.5) of the same compound?
A: The pKi was 6.38.

Q: And the inhibition at 20 µM ([3]; at 20,000 nM)?
A: Its inhibition at 20 µM is 0%.

Q: What about the inhibition at 20 µM ([4]; at 20,000 nM, read-out: % Inhibition Chymo.) of the same compound?
A: Its inhibition at 20 µM is 0%.

Q: And the inhibition at 20 µM ([5]; at 20,000 nM)?
A: Its inhibition at 20 µM is 0%.

Q: And the pKi [6]?
A: Its pKi is 7.29.
